For one data set, the target named is T1, CDK2/cyclin E1 (Homo sapiens, UniProt P24941).
T1 construct: purchased SignalChem
Description: In vitro CDK2/cyclinE enzyme activity assay (TR-FRET). It counts as biochemical. The settings on record: CDK2/cyclin E1, 1 mM ATP, 120 min at 25 °C. The procedure:
CDK2/cyclin E1 was purchased from SignalChem. Ulight-4E-BP1 peptide, Eu-anti-phospho-tyrosine antibody, and 1X detection buffer solution were purchased from PerkinElmer. High-purity adenosine triphosphate (ATP) was purchased from Promega. Ethylenediaminetetraacetic acid (EDTA) was purchased from Sigma. Nivo multimode plate reader (PerkinElmer) was used.
Preparation of Kinase Buffer Solution: The kinase buffer solution consisted 50 mM HEPES, 1 mM EDTA, 10 mM MgCl2, and 0.01% Brij-35, with pH of 7.4. 2.38 g HEPES, 58 mg EDTA, 406 mg MgCl2, and 20 mg Brij-35 were added to 200 mL buffer, and the pH was adjusted to 7.4.
(§1) The stop solution was prepared by mixing 100 µL of 1 M EDTA stock solution with […] of 1X detection buffer solution and 1725 µL of distilled water.
The enzyme, Ulight-4E-BP1 peptide, ATP, and the inhibitor were diluted using the kinase buffer solution. The Eu-anti-phospho-tyrosine antibody was diluted to a concentration of 8 nM/L using the detection buffer solution. The test compound was serially diluted 5-fold using a multichannel pipette to the 8th concentration, i.e., from 4 µM to 0.0512 nM. The final concentration of DMSO was 4%, and the experiment was set up with duplicate wells. 2.5 µL of each gradient concentration of the inhibitor, 5 µL of CDK2/cyclin E1 enzyme (10 ng), and 2.5 µL of a mixture of substrate and ATP (4 mM ATP, 100 nM Ulight-4E-BP1 peptide) were added to a microplate, resulting in a final concentration gradient of the compound from 1 µM to 0.0128 nM, with final ATP and substrate concentrations of 1 mM and 25 nM, respectively. The reaction system was incubated at 25 °C for 120 minutes. After the reaction, 5 µL of the stop solution was added to each well, and further reacted at 25 °C for 5 minutes to terminate the reaction. Then 5 µL of Eu-anti-phospho-tyrosine antibody dilution was added to each well, and the mixture was reacted at 25 °C for 60 minutes. Data were collected using the PerkinElmer Nivo multimode plate reader in TR-FRET mode (excitation wavelength: 320 nm; emission wavelengths: 615 nm and 665 nm).
The raw data were converted to inhibition rates according to the equation (Sample-Min)/(Max-Min)×100%. The IC50 value was obtained by fitting the data to a four-parameter curve (using log(inhibitor) vs. response -- Variable slope model in GraphPad Prism).
On the technique in general: Time-resolved FRET reads energy transfer from a long-lived donor to a nearby acceptor.

In the next data set the target is T2, CDK1/cyclin B1 (Homo sapiens, UniProt P06493).
T2 construct: purchased Carna Biosciences
T2 sequence (P06493 whole entry): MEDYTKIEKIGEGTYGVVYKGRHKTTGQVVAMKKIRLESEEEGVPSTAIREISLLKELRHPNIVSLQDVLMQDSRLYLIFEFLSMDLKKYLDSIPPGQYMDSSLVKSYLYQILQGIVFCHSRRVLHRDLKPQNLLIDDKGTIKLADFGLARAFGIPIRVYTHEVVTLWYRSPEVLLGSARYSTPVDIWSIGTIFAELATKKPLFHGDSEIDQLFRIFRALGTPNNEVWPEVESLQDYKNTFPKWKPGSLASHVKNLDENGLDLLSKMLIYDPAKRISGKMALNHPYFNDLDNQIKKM
T2 sequence (P14635 whole entry partner): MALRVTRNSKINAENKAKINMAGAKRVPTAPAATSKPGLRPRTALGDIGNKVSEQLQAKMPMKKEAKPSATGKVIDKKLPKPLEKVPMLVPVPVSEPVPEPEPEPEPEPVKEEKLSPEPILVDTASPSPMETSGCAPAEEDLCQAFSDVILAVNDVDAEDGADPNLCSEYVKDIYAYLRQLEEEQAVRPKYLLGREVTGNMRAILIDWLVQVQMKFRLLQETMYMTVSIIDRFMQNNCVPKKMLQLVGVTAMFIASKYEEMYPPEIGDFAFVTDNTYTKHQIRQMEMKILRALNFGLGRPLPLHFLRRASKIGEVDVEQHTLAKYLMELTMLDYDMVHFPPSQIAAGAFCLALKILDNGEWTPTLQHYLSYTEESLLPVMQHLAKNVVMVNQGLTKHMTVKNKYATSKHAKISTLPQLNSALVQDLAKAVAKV
Description: In vitro CDK1/cyclin B1 enzyme activity assay (TR-FRET). Type of data set: biochemical. The procedure:
CDK1/cyclin B1 was purchased from Carna Biosciences. Ulight-4E-BP1 peptide, Eu-anti-phospho-tyrosine antibody, and 1X detection buffer were purchased from PerkinElmer. High-purity ATP was purchased from Promega. EDTA was purchased from Sigma. Nivo multimode plate reader (PerkinElmer) was used.
Preparation of Kinase Buffer Solution: The kinase buffer solution consisted 50 mM HEPES, 1 mM EDTA, 10 mM MgCl2, and 0.01% Brij-35, with pH of 7.4.
as §1
The enzyme, Ulight-4E-BP1 peptide, ATP, and the inhibitor were diluted using the kinase buffer solution.
The Eu-anti-phospho-tyrosine antibody was diluted to a concentration of 8 nM/L using the detection buffer solution.
The final concentration of DMSO was 4%, and the experiment was set up with duplicate wells. […] The reaction system was incubated at 25 °C for 60 minutes. After the reaction, 5 µL of the stop solution was added to each well, and further reacted at 25 °C for 5 minutes to terminate the reaction. Then 5 µL of Eu-anti-phospho-tyrosine antibody dilution was added to each well, and the mixture was incubated at 25 °C for 60 minutes.
The IC50 value was obtained by fitting the data to a four-parameter curve (using log(inhibitor) vs. response -- Variable slope model in GraphPad Prism).

The test system of another data set is OVCAR-3 cells. Description: In vitro OVCAR-3 cell viability assay (CellTiter-Glo). It counts as cell-based. The settings on record: Homo sapiens, OVCAR-3, 168 h, 7 days incubation. The procedure: 1640 medium, fetal bovine serum, and penicillin/streptomycin antibiotics were purchased from Wisent. CellTiter-Glo (cell viability chemiluminescence assay reagent) was purchased from Promega. The OVCAR-3 cell line was purchased from Nanjing Cobioer Biosciences Co., Ltd. Envision multimode plate reader (PerkinElmer) was used.
OVCAR-3 cells were seeded into a white 384-well plate, with 40 µL of cell suspension containing 300 OVCAR-3 cells per well. The cell plate was incubated overnight in a CO2 incubator.
(§2) The test compound was serially diluted 5-fold using a multichannel pipette to the 8th concentration, i.e., from 2000 µM to 0.00512 µM. The experiment was set up with duplicate wells. 78 µL of culture medium was added to an intermediate plate, and 2 µL per well of the gradient-diluted compound was transferred to the corresponding position in the intermediate plate. After mixing, 10 µL per well of the mixture was transferred to the cell plate. The concentration range of the compound transferred to the cell plate was from 10 µM to 0.026 nM. The cell plate was incubated in a CO2 incubator for 7 days. Another cell plate was prepared, and the signal value was read on the day of compound addition to serve as the maximum value (Max in the equation below) for data analysis. 10 µL per well of CellTiter-Glo reagent was added to the cell plate, and the cell plate was incubated at room temperature for 10 minutes to stabilize the luminescence signal. The signal was read using the multimode plate reader.
10 µL per well of CellTiter-Glo reagent was added to the cell plate, and the cell plate was incubated at room temperature for 10 minutes to stabilize the luminescence signal. The signal was read using the multimode plate reader.
The raw data were converted to inhibition rates using the equation (Sample-Min)/(Max-Min)×100%. The IC50 value was obtained by fitting the data to a four-parameter curve (using log(inhibitor) vs. response -- Variable slope model in GraphPad Prism). Table 1 provides the inhibitory activity of the compounds of the present application against OVCAR-3 cell proliferation.
For orientation: Cellular ATP, detected with luciferase, serves as a proxy for viable cell number.

In another data set the test system is T-47D cells. Nature of the data set: In vitro T-47D cell viability assay (CellTiter-Glo). The settings on record: Homo sapiens, T47D, 168 h, 7 days incubation. It counts as cell-based. The procedure: 1640 medium, fetal bovine serum, and penicillin/streptomycin antibiotics were purchased from Wisent. CellTiter-Glo (cell viability chemiluminescence assay reagent) was purchased from Promega. The T-47D cell line was purchased from Nanjing Cobioer Biosciences Co., Ltd. Envision multimode plate reader (PerkinElmer) was used.
T-47D cells were seeded into a white 384-well plate, with 40 µL of cell suspension containing 300 T-47D cells per well. The cell plate was incubated overnight in a CO2 incubator.
as §2, with “using the Envision multimode plate” for “using the multimode plate”
10 µL per well of CellTiter-Glo reagent was added to the cell plate, and the cell plate was incubated at room temperature for 10 minutes to stabilize the luminescence signal. The signal was read using the Envision multimode plate reader.
The raw data were converted to inhibition rates using the equation (Sample-Min)/(Max-Min)×100%. The IC50 value was obtained by fitting the data to a four-parameter curve (using log(inhibitor) vs. response -- Variable slope model in GraphPad Prism). Table 1 provides the inhibitory activity of the compounds of the present application against T-47D cell proliferation.

Data set [1] can be described thus: Pharmacokinetic study, oral and intravenous administration in mice. On the set-up: species or system ICR mice. The settings on record: mouse, in vivo, ICR male mice; for AUC(0-t): read-out: Area under plasma concentration-time curve AUC0-last. The procedure: This study used ICR male mice as test animals. The plasma concentrations of the test compounds and the reference compound in mice were quantitatively determined at different time points using the LC-MS/MS method following intravenous injection or oral administration to evaluate the pharmacokinetic characteristics of the test compounds in mice.
ICR mice (male, 20-30 g, 6-8 weeks old, Beijing Charles River).
A clear solution of the test compound was administered to ICR mice (fasted overnight or fed) via tail vein injection or oral gavage. For intravenous injection, blood samples (50 µL) were collected via cheek puncture at 0 h (pre-dose) and at 0.083, 0.25, 0.5, 1, 2, 4, 6, 8, and 24 h post-dose into anticoagulant tubes containing sodium heparin. The mixtures were thoroughly vortexed at 4 °C and centrifuged at 6000 rpm for 3 minutes. For oral gavage, blood samples were collected via cheek puncture at 0 h (pre-dose) and at 0.083, 0.25, 1, 2, 4, 6, 8, and 24 h post-dose into anticoagulant tubes containing sodium heparin. The mixtures were vortexed thoroughly, and centrifuged at 6000 rpm for 3 minutes. Plasma drug concentrations were determined using the LC-MS/MS method. Pharmacokinetic parameters were calculated using Phoenix WinNonlin 8.2.0 pharmacokinetic software with a non-compartmental model and linear-logarithmic trapezoidal rule.

The mark [2] stands for this setting: CDK1/cyclin B1, 1 mM ATP, 60 min at 25 °C, Table 1, read-out: CDK1 IC50.
Setting [3] is: exact values stated in the text below Table 1, read-out: IC50 against CDK1.

We go through five molecules from patent EP4653431A1, “PYRAZOLE DERIVATIVE, AND PHARMACEUTICALLY ACCEPTABLE SALT, STEREOISOMER, PHARMACEUTICAL COMPOSITION AND USE THEREOF” (Starg (Wuhan) Pharmaceutical Technology Co., Ltd, priority 2023, dated 2024).

By pIC50 is commonly meant the negative decadic logarithm of the IC50, by convention in mol/L. In general, bioavailability refers to dose-corrected exposure relative to a reference, in per cent. As usually defined, the Tmax is the time at which the peak concentration occurs.

pIC50: −log10 of the molar value. Counter-ions that a name gives are not always drawn. Like-named read-outs stand apart in the source and are kept apart here. Bounds are passed on as bounds.

Regarding `CONCc1nn2ccnc(Nc3cc([C@H]4CC[C@@H](OC(=O)NC(C)C)C4)[nH]n3)c2c1C` [Formate salt of compound 1], the negative logarithm of the IC50 (pIC50) at CDK2/cyclin E1 was 8.42; at CDK1/cyclin B1 (setting [2]), under 6.00; on CDK1/cyclin B1 (setting [3]), 5.72; in the data set with OVCAR-3 cells, 7.05; with T-47D cells, 6.53.
On the same counts, the results for `CNOCc1nn2ccnc(Nc3cc([C@H]4CC[C@@H](OC(=O)NC(C)C)C4)[nH]n3)c2c1C` [Hydrochloride salt of compound 3] are 8.38, under 6.00, 5.87, 6.73 and 6.42.
As to `COCc1cc(C(=O)Nc2cc([C@H]3CC[C@@H](OC(=O)NC(C)C)C3)[nH]n2)n(C)n1` [PF-07104091, reference compound], the pIC50 is 6.28 on CDK1/cyclin B1 (setting [2]), 6.76 in the data set with OVCAR-3 cells and 6.42 with T-47D cells. Besides, in data set [1] (intravenous administration, 5 mg/Kg, read-out: Apparent volume of distribution Vdss), the Vd turned out to be 11.8 L/kg. Besides, the AUC(0-t) in data set [1] (intravenous administration, 5 mg/Kg) came to 1640 ng·h/mL; in data set [1] (oral administration, 30 mg/Kg), 7520 ng·h/mL. Moreover, in data set [1] (intravenous administration, 5 mg/Kg, read-out: Clearance CL), the clearance was found to be 50.3 mL/min/kg. Further, the half-life in data set [1] (intravenous administration, 5 mg/Kg, read-out: Half-life T1/2 (converted)) was 2.68 h. Also, the bioavailability in data set [1] (oral 30 mg/Kg vs intravenous 5 mg/Kg, read-out: Bioavailability F) was found to be 76.2%. In addition, the Cmax in data set [1] (oral administration, 30 mg/Kg, read-out: Peak concentration Cmax) is 6320 ng/mL. For the same molecule, in data set [1] (oral administration, 30 mg/Kg, read-out: Time to peak Tmax), the Tmax is 0.25 h.
For `C=NOCc1nn2ccnc(Nc3cc([C@H]4CC[C@@H](OC(=O)NC(C)C)C4)[nH]n3)c2c1F` [Compound 4], the pIC50 is 8.12 against CDK2/cyclin E1, under 6.00 at CDK1/cyclin B1 (setting [2]), 7.12 in the data set on OVCAR-3 cells and 6.62 in the data set on T-47D cells.
As for `CNOCc1nn2ccnc(Nc3cc([C@H]4CC[C@@H](OC(=O)NC(C)C)C4)[nH]n3)c2c1F` [Hydrochloride salt of Compound 7], the negative-log IC50 (pIC50) against CDK2/cyclin E1 is 8.02; at CDK1/cyclin B1 (setting [2]) it was under 6.00; at CDK1/cyclin B1 (setting [3]), under 5.00; in the data set with OVCAR-3 cells, 6.85; in the data set on T-47D cells, 6.31.
